Here are results for 1 molecule from patent US8410178B2, “CIS 3,4-dihydroxy-2-(3-methylbutanoyl)-5-(3-methylbutyl)-4-(4-methylpentanoyl)cyclopent-2-en-1-derivatives, substantially enantiomerically pure compositions and methods” (KinDex Therapeutics, LLC, priority 2010, dated 2013).

One test deals with 3T3-L1 adipocytes. Description: Lipogenesis in 3T3-L1 adipocytes (Oil Red O staining). Type of test: cell-based, Murine. How it is done:
The effect of (+)-KDT501 on lipogenesis was evaluated in 3T3-L1 adipocytes.
Murine 3T3-L1 preadipocytes (ATCC, Rockville, Md.) were maintained in DMEM (Invitrogen, Rockville, Md.) supplemented with 10% fetal bovine serum (FBS; ATCC). As preadipocytes, 3T3-L1 cells have a fibroblastic appearance. They replicate in culture until they form a confluent monolayer, after which cell-cell contact triggers G0/G1 growth arrest. Subsequent stimulation with 3-isobutyl-1-methylxanthane, dexamethasone, and high does of insulin for two days prompts the cells to undergo post-confluent mitotic clonal expansion, exit the cell cycle, and begin to express adipocyte-specific genes. Approximately five days after induction of differentiation, the cells display the characteristic lipid-filled adipocyte phenotype.
Cells were seeded at an initial density of approximately […] in 24-well plates and allowed to grow for 2 days to confluence. […]
Microscopic evaluation was performed at day 0 and every two days throughout testing to assess preadipocyte differentiation to adipocyte morphology. Intracellular lipid was quantified with Oil Red O staining. […] 150 μL of sample was transferred to a 96 well plate and absorbance was measured at 530 nm using a plate reader (Thermo Electron Corp.). […]

The target of the next test is T1, GPR120 (Homo sapiens, UniProt Q5NUL3).
T1 sequence (Q5NUL3 1-361): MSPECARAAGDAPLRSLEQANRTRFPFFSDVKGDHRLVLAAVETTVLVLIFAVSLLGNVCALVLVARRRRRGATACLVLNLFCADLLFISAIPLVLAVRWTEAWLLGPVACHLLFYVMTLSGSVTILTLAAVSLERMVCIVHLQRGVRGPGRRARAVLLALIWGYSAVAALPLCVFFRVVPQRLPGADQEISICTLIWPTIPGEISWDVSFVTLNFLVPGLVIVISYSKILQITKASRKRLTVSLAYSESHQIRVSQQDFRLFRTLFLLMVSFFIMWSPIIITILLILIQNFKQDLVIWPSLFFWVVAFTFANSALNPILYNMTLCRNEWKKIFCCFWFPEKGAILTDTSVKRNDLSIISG
The test can be described thus: GPR120 activity, intracellular calcium response in CHO-K1/GPR120/Gα15 cells. The format is cell-based. Particulars: CHO-K1/GPR120/Gα15 cells; calcium response; unit inferred; read-out: GPR120 agonistic activity EC50. How it is done:
GPR120 activity was measured by intracellular calcium response. CHO-K1/GPR120/Gα15 cells were regularly passaged to maintain optimal cell health and cultured in Ham's F12 supplemented with 10% fetal bovine serum, 200 μg/mL zeocin, and 100 μg/mL hygromycin. Cells were seeded in a 384-well black-wall, clear-bottom plate at a density of 20,000 cell per well in 20 μL of growth medium 18 hours prior to the start of the experiment, and maintained at 37° C./5% CO2. Cells were loaded with calcium-4, and baseline fluorescence readings were obtained from 1 second to 20 seconds using a fluorescent imaging plate reader (FLIPR). At 20 seconds, (+)-KDT501 (5× final concentration) was added to the reading plate, and the fluorescence signal was monitored for 100 seconds (21 seconds to 120 seconds). α-linolenic acid (LA), eicosapentaenoic acid (EPA), and docosahexaenoic acid (DHA) were used as controls. Data acquisition and analysis was performed using ScreenWorks (version 3.1) and exported to Excel. The average fluorescence value for the first 20 seconds was calculated as the baseline reading. The relative fluorescent unit (ΔRFU) intensity values were calculated with the maximal fluorescent units (21 s to 120 s), subtracting the baseline reading. Data analysis wizard written by GenScript was used to analyze EC50. Dose response curves of antagonist were fitted using the GraphPad Prism 4 four parameter logistic equation Y=Bottom+(Top−Bottom)/(1+10^((LogIC50−X)*HillSlope)), where X is the logarithm of concentration and Y is response.

The target of test [1] is T2, peroxisome proliferator-activated receptor gamma (PPARγ) (Homo sapiens, UniProt P37231).
T2 sequence (P37231 1-505): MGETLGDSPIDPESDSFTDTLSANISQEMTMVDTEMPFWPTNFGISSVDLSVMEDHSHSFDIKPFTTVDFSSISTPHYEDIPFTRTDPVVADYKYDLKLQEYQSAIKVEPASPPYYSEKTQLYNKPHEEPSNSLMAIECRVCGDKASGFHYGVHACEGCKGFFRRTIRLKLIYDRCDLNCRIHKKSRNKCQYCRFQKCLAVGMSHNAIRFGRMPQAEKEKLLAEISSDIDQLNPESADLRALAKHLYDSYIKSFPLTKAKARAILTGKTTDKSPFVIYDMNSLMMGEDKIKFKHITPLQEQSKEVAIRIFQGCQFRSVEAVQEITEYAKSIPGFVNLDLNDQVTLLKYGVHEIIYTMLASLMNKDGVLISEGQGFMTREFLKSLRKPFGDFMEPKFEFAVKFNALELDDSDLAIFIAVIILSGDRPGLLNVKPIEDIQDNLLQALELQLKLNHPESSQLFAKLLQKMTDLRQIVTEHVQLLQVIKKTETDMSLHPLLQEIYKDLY
Description: Competitive binding to PPARγ ([3H]rosiglitazone).

Test [2] addresses T3, angiotensin II receptor type II (AGTR2) (Homo sapiens, UniProt P50052).
T3 sequence (P50052 1-363): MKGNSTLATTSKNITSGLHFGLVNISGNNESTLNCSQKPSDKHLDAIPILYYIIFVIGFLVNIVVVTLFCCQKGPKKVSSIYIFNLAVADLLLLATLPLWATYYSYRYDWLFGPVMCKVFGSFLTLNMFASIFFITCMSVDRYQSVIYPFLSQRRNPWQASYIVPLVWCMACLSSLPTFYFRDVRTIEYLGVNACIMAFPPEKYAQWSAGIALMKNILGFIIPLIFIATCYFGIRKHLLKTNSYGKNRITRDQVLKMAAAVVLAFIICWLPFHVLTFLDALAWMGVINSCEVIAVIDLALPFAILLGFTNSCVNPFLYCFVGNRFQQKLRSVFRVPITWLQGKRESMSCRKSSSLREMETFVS
The test can be described thus: Competitive binding to AGTR2 ([125I]CGP 42112A). To be noted: binding target AGTR2; competitor ligand Angiotensin-II.

For the molecule `CC(C)CCC(=O)[C@@]1(O)C(O)=C(C(=O)CC(C)C)C(=O)[C@@H]1CCC(C)C.[K]` [(+)-KDT501, (+)-(4S,5R)-3,4-dihydroxy-2-(3-methylbutanoyl)-5-(3-methylbutyl)-4-(4-methylpentanoyl)cyclopent-2-en-1-one potassium salt], the “lipogenesis (intracellular lipid, Oil Red O)” value with 3T3-L1 adipocytes (3T3-L1 adipocytes, 6.25, 12.5, and 25 μM) is recorded as “increased lipogenesis in 3T3-L1 adipocytes in a statistically significant manner”. Further, the adipogenesis result in the test with 3T3-L1 adipocytes (3T3-L1 murine fibroblast model) is “induce both lipogenesis and adipogenesis in a dose-dependent manner”. Besides, the EC50 on GPR120 stood at 30.3 µM. Also, the IC50 in test [1] amounted to 8.4 µM; in test [2], 14 µM. The Ki in test [1] turned out to be 4.5 µM; in test [2] it was 7.1 µM. Also, the nH in test [1] (binding target PPARγ, competitor ligand Rosiglitazone) came to 1.1; in test [2], 1.4.
